These results are taken from patent US20020049169A1, “Method for reducing toxicity of combined chemotherapies” (priority 2000, published 2002).

Common to all, as to type: biochemical
For data set [1], the system named is NADPH cytochrome P-450 reductase. In words: NADPH oxidation by deoxycholate-solubilized microsomes of human heart, plus or minus taxanes. The conditions noted are these: 10 μM DOX, 1-10 μM taxane. Here is the method:
(§1) Reconstitution of DOX Metabolism and Free Radical Formation, Plus or Minus Taxanes, in Human Cardiac Microsomes.
(§2) 105,000 g pellets from human myocardium homogenates are solubilized with deoxycolate and reconstituted at the final concentration of 0.025 mg prot/ml with 10 μM DOX, 1-10 μM taxane, 0.1 mM NADPH, in 0.3 M NaCl, pH 7.0, 37° C.
(§3) Electron flow from NADPH cytochrome P-450 reductase to the quinone moiety of DOX is detected by monitoring NADPH oxidation. Redox coupling of the semiquinone with oxygen is detected by monitoring formation of the superoxide anion radical with the superoxide dismutase-inhibitable reduction of cytochrome c (25 μM). These assays are performed in a Hewlett Packard 8453A UV/VIS/NIR spectrometer equipped with computer-assisted corrections for scatter and turbidity.

Data set [2] concerns human cardiac microsomes. Description: Superoxide anion formation (superoxide dismutase-inhibitable reduction of cytochrome c) by deoxycholate-solubilized human cardiac microsomes. As to conditions: for effect of taxane on DOX-dependent superoxide anion formation (in words): DOX plus 10 μM taxane; for generation of superoxide anion radicals in microsomal fractions: human cardiac microsomes, n=4-10. Here is the method:
as §1, §2, §3

Data set [3] deals with human cardiac cytosol. In words: Conversion of DOX aglycone into DOXol aglycone, plus or minus taxanes, in human cardiac cytosol. The conditions noted are these: for stimulation of conversion of DOX aglycone into DOXol aglycone (in words): DOX aglycone in place of DOX, plus taxane; for cytoplasmic conversion of doxorubicinone to doxorubicinolone: n=3. The text has this: (§4) The enzymes of DOX metabolism are strongly species-related. To avoid the potential pitfalls associated with studies in animal models, an in vitro human heart assay was utilized. The assay involves isolation of both cytosolic fractions generating DOXol, and microsomal fractions converting DOX to free radicals.
(§5) Human myocardium is obtained from patients undergoing aorto-coronary bypass grafting. All samples were routinely disposed of by the surgeons from the lateral aspect of excluded right atrium during cannulation procedures for cardio-pulmonary by-pass. After storage at −80° C., pools of 15-20 samples are processed for cytosol preparation by sequential homogenization, ultracentrifugation and overnight 65% ammonium sulfate precipitation of 105,000 g supernatants. Next, cytosol is dialyzed against 100 mM Tris HCl-40 mM KCl, pH 8.9, diluted to 3 mg protein/ml with the same buffer, and incubated for 15 minutes at room temperature with 100 mM dithiothreitol to promote non-denaturing disassembly of the [4Fe-4S] cluster of cytoplasmic aconitase. This treatment is necessary as reactions of DOXol with [4Fe-4S] clusters would convert this metabolite back to DOX. Sizable amounts of DOXol would therefore go undetected if they reacted with [4Fe-4S] clusters prior to their assay. Unreacted dithiothreitol was eventually removed by sequential gel filtration on (1.5×10 cm) Sepharose 6B columns, protein reprecipitation with 65% ammonium sulfate, and extensive dialysis against 0.3 M NaCl, pH 7.0. Doxorubicin metabolism was reconstituted in 0.5 ml incubations containing cytosol (0.15 mg protein), NADPH (100 μM) and DOX (25 μM), in 0.3 M NaCl (pH 7.0) 37° C. Where indicated ethanol-dissolved taxanes (1-50 μM) were included. Aliquots of taxane-free ethanol (5 μl) were included as appropriate to adjust the final volume to 10 μl in all incubations. After 4 h DOX and DOXol were extracted with 2 ml of CHCl3/CH3OH (1:1) and separated by previously validated two-dimensional TLC on (20×20 cm) […] F524 Silica Gel Plates, using CHCl3/CH3OH/CH3COOH/H2O (80:20:14:6) as mobile phase in either dimension. Doxorubicinol was identified by cochromatography with (S)-DOXol from Streptomyces peucetius or (S)(R)-DOXol purified after NaBH4 reduction of DOX. Where indicated incubations were prepared by replacing DOX with DOX aglycone and by measuring formation of DOXol aglycone. The latter was separated from DOX aglycone by using CHCl3/CH3OH/CH3COOH (100:2:5) and CH3COOC2H5—CH3CH2OH—CH3COOH—H2O (80:10:5:5) in the first and second dimension, respectively. DOX aglycone was purified after thermoacid hydrolysis of DOX.

For data set [4], the system named is human cardiac cytosol. In words: Reconstitution of DOX metabolism and DOXol formation, plus or minus taxanes, in human cardiac cytosol. As to conditions: for stimulation of DOXol formation (in words): [4Fe-4S]-depleted human cardiac cytosol, DOX 25 μM, taxane 1-50 μM, 4 h; for cytoplasmic conversion of DOX to doxorubicinol: human cardiac cytosol, n=3.
Text: as §4
Reconstitution of DOX Metabolism and DOXol Formation, Plus or Minus Taxanes, in Human Cardiac Cytosol.
as §5

The mark [5] stands for this setting: deoxycholate-solubilized microsomes.
Where [6] appears, read: taxane 1 μM with doxorubicinone.
[7] abbreviates: DOX alone, no taxane (baseline).

The structures appear in SMILES notation. Entries after “also recorded” stand apart in the source; their conditions may differ.

`CC(=O)O[C@H]1C(=O)[C@@]2(C)[C@H]([C@H](OC(=O)c3ccccc3)[C@]3(O)C[C@H](OC(=O)[C@H](O)[C@@H](NC(=O)c4ccccc4)c4ccccc4)C(C)=C1C3(C)C)[C@]1(OC(C)=O)CO[C@@H]1C[C@@H]2O` [PTX, paclitaxel]: the “effect on NADPH oxidation in the presence of DOX (in words)” value in data set [1] is reported as “able to stimulate NADPH oxidation”. For the same compound, the “effect of taxane on DOX-dependent superoxide anion formation (in words)” value (shortened to “effect of taxane”) in data set [2] (setting [5]) is given as “significant increase in superoxide formation”. Further, the “generation of superoxide anion radicals in microsomal fractions” value in data set [2] (taxane 10 μM with DOX) worked out at 2.2±0.2 nmol/mg prot./min. Moreover, the “stimulation of conversion of DOX aglycone into DOXol aglycone (in words)” value (“stimulation of conversion … (in words)” below) in data set [3] was “able to stimulate the conversion of DOX aglycone into DOXol aglycone”. Moreover, in data set [3] (setting [6]), the “cytoplasmic conversion of doxorubicinone to doxorubicinolone” value (from here on “cytoplasmic conversion of doxorubicinone”) turned out to be 1.4±0.2 nmol/mg prot./4 h. For the same compound, the “stimulation of DOXol formation (in words)” value in data set [4] was “stimulate DOXol formation”. Also, in data set [4] (taxane 1 μM with DOX), the “cytoplasmic conversion of DOX to doxorubicinol” value is on record as 1.1±0.2 nmol/mg prot./4 h.

Consider `CSCO[C@H]1C[C@H]2OC[C@@]2(OC(C)=O)[C@H]2[C@H](OC(=O)c3ccccc3)[C@]3(O)C[C@H](OC(=O)[C@H](O)[C@@H](NC(=O)c4ccccc4)c4ccccc4)C(C)=C([C@@H](OC(C)=O)C(=O)[C@]12C)C3(C)C` [7-methylthiomethyl taxol], for which the “effect on NADPH oxidation in the presence of DOX (in words)” value in data set [1] is given as “appeared to inhibit NADPH oxidation”. Further, the “effect of taxane” value in data set [2] (setting [5]) is “did not increase; also recorded: did not afford any significant stimulation”. Besides, the “stimulation of conversion … (in words)” value in data set [3] was “did not increase; also recorded: has not been found to stimulate the formation of DOXol aglycone”. Besides, in data set [4], the “stimulation of DOXol formation (in words)” value is “did not increase; also recorded: did not stimulate DOXol formation at any of the concentrations tested”.

As to `CC(=O)O[C@@]12CO[C@@H]1C[C@H](O)[C@@]1(C)C(=O)[C@H](O)C3=C(C)[C@@H](OC(=O)[C@H](O)[C@@H](NC(=O)OC(C)(C)C)c4ccccc4)C[C@@](O)([C@@H](OC(=O)c4ccccc4)[C@H]21)C3(C)C` [DCT, docetaxel], the “effect of taxane” value in data set [2] (setting [5]) is listed as “significant increase in superoxide formation”. The “stimulation of conversion … (in words)” value in data set [3] is given as “able to stimulate the conversion of DOX aglycone into DOXol aglycone”. Besides, in data set [3] (setting [6]), the “cytoplasmic conversion of doxorubicinone” value is reported as 1.3±0.2 nmol/mg prot./4 h. In addition, the “stimulation of DOXol formation (in words)” value in data set [4] is “stimulate DOXol formation”. Moreover, the “cytoplasmic conversion of DOX to doxorubicinol” value in data set [4] (taxane 1 μM with DOX) is on record as 1.2±0.2 nmol/mg prot./4 h.

As to `COc1cccc2c1C(=O)c1c(O)c3c(c(O)c1C2=O)C[C@@](O)(C(=O)CO)C[C@@H]3O` [doxorubicinone], the “cytoplasmic conversion of doxorubicinone” value in data set [3] (doxorubicinone alone, no taxane (baseline)) is given as 0.8±0.1 nmol/mg prot./4 h.

With `COc1cccc2c1C(=O)c1c(O)c3c(c(O)c1C2=O)C[C@@](O)(C(=O)CO)C[C@@H]3O[C@H]1C[C@H](N)[C@H](O)[C@H](C)O1` [DOX, doxorubicin], the “generation of superoxide anion radicals in microsomal fractions” value in data set [2] (setting [7]) turned out to be 1.6±0.1 nmol/mg prot./min. The “effect of DOX on superoxide anion formation (in words)” value in data set [2] (deoxycholate-solubilized microsomes, DOX without taxane) was “able to enhance superoxide anion formation”. Further, the “cytoplasmic conversion of DOX to doxorubicinol” value in data set [4] (setting [7]) was determined as 0.46±0.04 nmol/mg prot./4 h.
